Literature values as cited in PMC5677520 (Journal of medicinal chemistry, 2017).

Details: result in words

Row | Compound | passive permeabilities
1 | cylindrocyclin | druglike
2 | CC[C@H](C)[C@@H]1NC(=O)c2csc(n2)[C@@H](C)NC(=O)[C@H]2N=C(O[C@@H]2C)[C@H](C(C)C)NC(=O)c2csc(n2)[C@@H](Cc2ccccc2)NC(=O)[C@H]2N=C1O[C@@H]2C [patellamide C] | druglike
